Series [1] has as its system HEK293. Description: Antitumor activity against human HEK293 cells in CB17-SCID xenografted mouse model at 150 mg/kg relative to control. In kind it is functional. A general note: In xenograft studies the graft and the host belong to different species.
Series [2] concerns HEK293. Description: Antitumor activity against human HEK293 cells in CB17-SCID xenografted mouse model at 300 mg/kg relative to control. In kind it is functional.
Series [3] is described as follows: Inhibition of Wnt signalling pathway in HEK293 cells assessed growth inhibition of cells by luciferase assay. In kind it is cell-based. The settings on record: Homo sapiens.
Series [4] in a line: Clearance in mouse liver microsomes. The conditions noted are these: read-out: CLH. In kind it is ADME, Microsome. A general note: Liver microsomes are vesicles of endoplasmic reticulum, rich in cytochrome P450 enzymes.
Series [5] in a line: Clearance in human liver microsomes. In kind it is ADME, Microsome. The settings on record: read-out: CLH.
Series [6] in a line: Oral bioavailability in rat at 5 mg/kg. It is filed as ADME, organism-based. The settings on record: in vivo.
Series [7] is described as follows: Efflux ratio of apparent permeability in human Caco-2 cells. In kind it is ADME, cell-based.
The target of another series is T1, Catenin beta-1/BCL9L (Homo sapiens, UniProt P35222+Q86UU0).
T1 sequence (P35222 whole entry): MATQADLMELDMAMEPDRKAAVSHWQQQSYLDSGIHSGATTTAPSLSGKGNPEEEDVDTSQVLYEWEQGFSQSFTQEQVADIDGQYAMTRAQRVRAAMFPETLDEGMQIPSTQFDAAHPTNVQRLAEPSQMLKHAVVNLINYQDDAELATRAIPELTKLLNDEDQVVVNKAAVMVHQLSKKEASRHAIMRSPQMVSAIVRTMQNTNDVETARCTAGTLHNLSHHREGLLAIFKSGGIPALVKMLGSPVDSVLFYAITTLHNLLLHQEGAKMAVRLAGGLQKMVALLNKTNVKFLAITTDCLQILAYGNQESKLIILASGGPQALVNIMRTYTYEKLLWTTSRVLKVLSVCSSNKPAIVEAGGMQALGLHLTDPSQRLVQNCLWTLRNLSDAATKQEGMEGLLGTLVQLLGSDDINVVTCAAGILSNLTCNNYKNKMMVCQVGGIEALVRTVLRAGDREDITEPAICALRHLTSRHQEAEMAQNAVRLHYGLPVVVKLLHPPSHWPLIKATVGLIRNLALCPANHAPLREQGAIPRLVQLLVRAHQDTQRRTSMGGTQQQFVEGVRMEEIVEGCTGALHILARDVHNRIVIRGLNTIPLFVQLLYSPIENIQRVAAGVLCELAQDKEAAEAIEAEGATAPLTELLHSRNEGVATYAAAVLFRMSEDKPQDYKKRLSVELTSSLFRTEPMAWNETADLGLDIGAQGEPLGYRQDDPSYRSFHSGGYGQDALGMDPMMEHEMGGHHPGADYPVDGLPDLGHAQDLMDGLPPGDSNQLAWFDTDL
T1 sequence (Q86UU0 whole entry): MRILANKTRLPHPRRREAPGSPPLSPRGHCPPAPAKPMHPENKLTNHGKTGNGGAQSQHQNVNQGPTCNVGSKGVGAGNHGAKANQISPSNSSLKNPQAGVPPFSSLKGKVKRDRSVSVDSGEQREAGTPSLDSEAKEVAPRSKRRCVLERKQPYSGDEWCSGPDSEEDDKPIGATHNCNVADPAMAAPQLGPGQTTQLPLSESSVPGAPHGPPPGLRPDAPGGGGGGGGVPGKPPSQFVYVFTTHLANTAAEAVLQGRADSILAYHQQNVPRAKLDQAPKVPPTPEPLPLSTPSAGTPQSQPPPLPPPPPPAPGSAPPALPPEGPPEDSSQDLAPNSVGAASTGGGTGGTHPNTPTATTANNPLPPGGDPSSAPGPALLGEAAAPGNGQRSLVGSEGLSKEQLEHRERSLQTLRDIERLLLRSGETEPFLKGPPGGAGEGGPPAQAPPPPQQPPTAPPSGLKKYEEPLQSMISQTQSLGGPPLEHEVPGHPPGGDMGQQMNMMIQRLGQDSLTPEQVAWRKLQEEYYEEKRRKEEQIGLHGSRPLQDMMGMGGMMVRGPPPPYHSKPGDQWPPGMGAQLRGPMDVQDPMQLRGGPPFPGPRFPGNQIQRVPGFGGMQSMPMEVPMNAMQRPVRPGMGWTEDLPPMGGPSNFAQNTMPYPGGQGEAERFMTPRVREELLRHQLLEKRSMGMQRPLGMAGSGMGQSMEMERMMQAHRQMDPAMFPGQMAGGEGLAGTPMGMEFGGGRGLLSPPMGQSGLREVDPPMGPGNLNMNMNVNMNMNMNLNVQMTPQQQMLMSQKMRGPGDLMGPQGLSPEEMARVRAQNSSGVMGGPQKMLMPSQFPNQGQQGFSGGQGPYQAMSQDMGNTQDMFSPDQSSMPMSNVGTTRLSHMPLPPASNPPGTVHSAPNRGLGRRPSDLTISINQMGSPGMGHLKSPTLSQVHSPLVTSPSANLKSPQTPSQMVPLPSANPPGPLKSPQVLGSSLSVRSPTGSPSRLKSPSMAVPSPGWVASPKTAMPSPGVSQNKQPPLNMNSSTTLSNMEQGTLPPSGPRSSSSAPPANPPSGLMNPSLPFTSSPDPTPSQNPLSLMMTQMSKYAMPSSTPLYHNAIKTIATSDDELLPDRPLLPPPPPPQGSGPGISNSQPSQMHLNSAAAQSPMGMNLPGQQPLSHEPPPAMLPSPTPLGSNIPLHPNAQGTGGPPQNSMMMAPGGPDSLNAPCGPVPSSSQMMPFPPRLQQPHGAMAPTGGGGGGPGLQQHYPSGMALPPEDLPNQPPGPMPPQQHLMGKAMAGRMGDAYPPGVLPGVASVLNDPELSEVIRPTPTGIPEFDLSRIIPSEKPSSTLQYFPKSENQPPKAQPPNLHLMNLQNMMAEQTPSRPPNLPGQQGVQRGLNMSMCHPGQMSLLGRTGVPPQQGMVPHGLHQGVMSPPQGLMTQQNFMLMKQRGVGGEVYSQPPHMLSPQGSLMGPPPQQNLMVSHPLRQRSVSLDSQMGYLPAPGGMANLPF
In words: Binding affinity to beta catenin (unknown origin) to BCL assessed as inhibition constant by alpha screening assay. In kind it is protein-complex assay.

Another series relates to MCF7. In words: Antiproliferative activity against human MCF7 cells by MTT assay. In kind it is functional, cell-based. For orientation: Tetrazolium dyes change colour on reduction, which living cells bring about.
Series [8] is described as follows: Solubility of compound at pH 7.4. In kind it is physicochemical. The settings on record: buffer.
The target in series [9] is Catenin beta-1/Transcription factor 7 (Homo sapiens, UniProt P35222+P36402). Description: Inhibition of beta catenin/TCF (unknown origin) by immunoprecipitation method. It is filed as protein assay.
Chain of Catenin beta-1/Transcription factor 7 (P36402 whole entry, one chain of several): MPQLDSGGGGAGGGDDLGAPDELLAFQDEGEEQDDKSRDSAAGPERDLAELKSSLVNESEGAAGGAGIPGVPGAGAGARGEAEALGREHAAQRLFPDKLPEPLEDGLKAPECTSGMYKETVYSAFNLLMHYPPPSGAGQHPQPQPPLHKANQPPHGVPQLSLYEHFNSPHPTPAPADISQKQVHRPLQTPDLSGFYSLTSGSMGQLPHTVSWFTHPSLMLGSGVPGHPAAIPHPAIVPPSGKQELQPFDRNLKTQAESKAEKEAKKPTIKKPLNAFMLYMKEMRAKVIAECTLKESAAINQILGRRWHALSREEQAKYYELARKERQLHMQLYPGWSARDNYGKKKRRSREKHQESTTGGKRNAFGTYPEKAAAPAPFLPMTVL
For the next series, the system named is LNCaP C4-2B. Description: Antiproliferative activity against human LNCaP C4-2B cells assessed as inhibition of cell growth by Celltiter-Glo assay. In kind it is functional, cell-based.

Values after ≈ are worked out from the molar mass of the structure shown.

In the case of `COc1ccc(-n2c(SCc3nc(-c4ccc(C)cc4)no3)nnc2-c2ccncc2)cc1`, the Activity in the series with HEK293 [1] was 33%; in the series with HEK293 [2], 35%.

Broadly, the IC50 is the concentration that gives 50% inhibition. Compound `Cc1cc(/C=C/c2ccc3cc(N(C)C)ccc3[n+]2C)c(C)n1-c1ccccc1` registered an IC50 in series [3] of 10 nM.

Take `CC1(C)OC(=O)N(c2ccc(-c3cnc(N)c(-c4ncccn4)c3)cc2)[C@H]1c1ccccc1`: the microsomal CLint is 48 µL/min/mg in series [4] and 33 µL/min/mg in series [5].

As usually defined, the bioavailability is dose-corrected exposure relative to a reference, in per cent. The low end stands for little systemic uptake, the high end for much systemic uptake. On to `COCCNc1cc(C)c(-c2ccc(-c3nc4c(CO)cccc4c(=O)[nH]3)cc2)cn1`, for which the bioavailability in [6] was 18%.

As usually defined, the efflux ratio is a quotient of directional permeabilities that is used to spot active efflux. Take `Cc1cc(N2C[C@@H](C)N[C@@H](C)C2)ncc1-c1ccc(-c2nc3c(ccn3C)c(=O)[nH]2)cc1`: the efflux ratio in series [7] is 2.7.

A word on the Ki: it is the equilibrium dissociation constant of an inhibitor or competing ligand from its target. As for `O=C(c1cc(F)cc(N2CCNCC2)c1)N1CCN(C(=O)c2ccc(O[C@@H]3CCNC3)c(C3CCCCC3)c2)CC1`, at Catenin beta-1/BCL9L, the Ki came out at 5200 nM.

The term EC50 denotes the concentration needed to bring the measured effect to its halfway point. A lower EC50 goes with an effect from little substance. As for `Cc1cccc2c(=O)[nH]c3c(c12)COC(C(C)(C)CO)C3` (configuration not stated), the EC50 with MCF7 is 7 nM.

Usually solubility stands for the dissolved amount per volume that the medium holds. In series [8], `COc1ccccc1N1CCN(c2nc3c(c(=O)[nH]2)CCCC3)CC1` had a solubility of 72 µg/mL (≈ 211 µM).

Regarding `COc1ccc([C@@H](C)N2CC(=O)N[C@H](C)C(=O)CN(CCc3ccccc3Oc3ccccc3)CC(=O)N(c3cc(OC)cc(OC)c3)CC(=O)N(CCCOC(C)C)CC(=O)N([C@H](C)c3ccc(OC)cc3)CC2=O)cc1`, the IC50 in series [9] was found to be 10000 nM; in the series with LNCaP C4-2B, 195 nM.

These data come from ChEMBL document CHEMBL5226302, “Small-Molecule Inhibitors Targeting the Canonical WNT Signaling Pathway for the Treatment of Cancer” (J Med Chem, 2021).
